We go through 20 molecules from PubChem BioAssay AID328 (DTP/NCI, 2004).

In the experiment the test system is BDF1 mice, P388 leukemia ip, median survival T/C. Kind of experiment: NCI In Vivo Anticancer Drug Screen. Data for tumor model P388 Leukemia (intraperitoneal) in B6D2F1 (BDF1) mice. To be noted: endpoint: median survival time, higher = longer survival. The essentials: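 Compound-treated tumour-bearing mice were compared with vehicle-treated controls. Survival was recorded, and the value is the treated-group measurement divided by the control-group measurement (T/C).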

The mark [1] stands for this setting: dose: 100.0 mg/kg/injection, schedule: Q01DX009 (ip), vehicle: saline.
Setting [2] is: dose: 50.0 mg/kg/injection, schedule: Q04DX003 (ip), vehicle: Klucel (hydroxypropylcellulose) (HPC).
The mark [3] stands for this setting: dose: 100.0 mg/kg/injection, schedule: Q01DX009 (ip), vehicle: Klucel (hydroxypropylcellulose) (HPC).
The mark [4] stands for this setting: dose: 100.0 mg/kg/injection, schedule: Q04DX003 (ip), vehicle: Klucel (hydroxypropylcellulose) (HPC).
Where [5] appears, read: dose: 200.0 mg/kg/injection, schedule: Q01DX009 (ip), vehicle: Klucel (hydroxypropylcellulose) (HPC).
Setting [6] is: dose: 400.0 mg/kg/injection, schedule: Q01DX009 (ip), vehicle: Klucel (hydroxypropylcellulose) (HPC).
Where [7] appears, read: dose: 50.0 mg/kg/injection, schedule: Q04DX003 (ip), vehicle: saline.
Where [8] appears, read: dose: 100.0 mg/kg/injection, schedule: Q04DX003 (ip), vehicle: saline.
Setting [9] is: dose: 200.0 mg/kg/injection, schedule: Q04DX003 (ip), vehicle: saline.
The mark [10] stands for this setting: dose: 25.0 mg/kg/injection, schedule: Q04DX003 (ip), vehicle: saline with Tween-80.
Setting [11] is: dose: 50.0 mg/kg/injection, schedule: Q04DX003 (ip), vehicle: saline with Tween-80.
Where [12] appears, read: dose: 100.0 mg/kg/injection, schedule: Q01DX001 (ip), vehicle: Klucel (hydroxypropylcellulose) (HPC).
Where [13] appears, read: dose: 200.0 mg/kg/injection, schedule: Q01DX009 (ip), vehicle: saline.
Where [14] appears, read: dose: 400.0 mg/kg/injection, schedule: Q04DX003 (ip), vehicle: saline.
[15] abbreviates: dose: 100.0 mg/kg/injection, schedule: Q01DX009 (ip), vehicle: saline with Tween-80.
Where [16] appears, read: dose: 200.0 mg/kg/injection, schedule: Q01DX009 (ip), vehicle: saline with Tween-80.

Each structure is given as a SMILES string. “And” between values parts separate entries of the source, which are not always exact repeats. Identical values can stand only once. Inconclusive results and toxic doses are left out.

Regarding `CC(O)CN(CCN(CC(C)O)CC(C)O)CC(C)O.[Cl-].[Co+2]` (stereo unspecified), under setting [1], the T/C is 110 % of control.

As for `O/N=C\CCC/C=N/O`, the T/C is 100 % of control under setting [2]; 91 % of control under setting [3]; 100 % of control under setting [4]; 95 % of control under setting [5]; 100 % of control (dose: 200.0 mg/kg/injection, schedule: Q04DX003 (ip), vehicle: Klucel (hydroxypropylcellulose) (HPC)); 95 % of control under setting [6].

As for `O=c1[nH]c2nc(Cl)c(Cl)nc2[nH]1`, the T/C reads like this: under setting [7], 113 % of control; under setting [8], 106 % of control; under setting [9], 111 % of control.

For the molecule `CC[CH2][Pb]([CH2]CC)([CH2]CC)[O]C(=O)C(F)(F)F`, the T/C (dose: 4.0 mg/kg/injection, schedule: Q01DX009 (ip), vehicle: Klucel (hydroxypropylcellulose) (HPC)) was 113 % of control; the T/C (dose: 4.0 mg/kg/injection, schedule: Q01DX009 (ip), vehicle: saline with Tween-80) is 122 % of control; the T/C (dose: 6.0 mg/kg/injection, schedule: Q01DX009 (ip), vehicle: Klucel (hydroxypropylcellulose) (HPC)) is 111 % of control; the T/C (dose: 6.0 mg/kg/injection, schedule: Q01DX009 (ip), vehicle: saline with Tween-80) is 150 % of control.

In the case of `Cc1onc(-c2ccccc2Cl)c1C(=O)Nc1ccccc1CC1c2ccccc2CCN1C` (stereo unspecified), the T/C (dose: 50.0 mg/kg/injection, schedule: Q01DX009 (ip), vehicle: Klucel (hydroxypropylcellulose) (HPC)) is 101 % of control; the T/C under setting [3] is 104 % of control; the T/C under setting [5] is 95 % of control.

`C/C(=C/c1cc2c(cc1Br)OCO2)[N+](=O)[O-]`: the T/C by setting is: under setting [10], 98 % of control; under setting [11], 98 % of control; (dose: 100.0 mg/kg/injection, schedule: Q04DX003 (ip), vehicle: saline with Tween-80) 100 % of control and 106 % of control; (dose: 200.0 mg/kg/injection, schedule: Q04DX003 (ip), vehicle: saline with Tween-80) 115 % of control.

Turning to `Nc1ccc(N)c2c1C(=O)c1cccc([N+](=O)[O-])c1C2=O`, the T/C reads like this: (dose: 25.0 mg/kg/injection, schedule: Q01DX010 (ip), vehicle: carboxymethylcellulose (CMC)) 95 % of control; (dose: 50.0 mg/kg/injection, schedule: Q01DX010 (ip), vehicle: carboxymethylcellulose (CMC)) 105 % of control; (dose: 100.0 mg/kg/injection, schedule: Q01DX010 (ip), vehicle: carboxymethylcellulose (CMC)) 115 % of control; (dose: 200.0 mg/kg/injection, schedule: Q01DX010 (ip), vehicle: carboxymethylcellulose (CMC)) 105 % of control; (dose: 400.0 mg/kg/injection, schedule: Q01DX010 (ip), vehicle: carboxymethylcellulose (CMC)) 110 % of control.

Take `BrCC12CCC1(CBr)COC2` (stereo unspecified): the T/C under setting [12] is 107 % of control; the T/C (dose: 200.0 mg/kg/injection, schedule: Q01DX001 (ip), vehicle: Klucel (hydroxypropylcellulose) (HPC)) is 92 % of control; the T/C (dose: 400.0 mg/kg/injection, schedule: Q01DX001 (ip), vehicle: Klucel (hydroxypropylcellulose) (HPC)) was 100 % of control.

As to `C[C@]12CCC(=O)C=C1CC[C@H]1[C@@H]3C[C@@H](O)[C@](O)(C(=O)CO)[C@@]3(C)C[C@H](O)[C@@]12F`, the T/C was 108 % of control under setting [1]; 108 % of control under setting [8]; 87 % of control under setting [13]; 116 % of control under setting [9]; 100 % of control under setting [14].

`C=C(C)C12OC3(c4ccccc4)OC1C1C4OC4(CO)C(O)C4(O)C(=O)C(C)=CC4C1(O3)C(C)C2OC(=O)/C=C/c1ccccc1` (stereo unspecified): the T/C (dose: 6.3 micrograms/kg/injection, schedule: Q## X009 (ip), vehicle: saline + alcohol) was 114 % of control; the T/C (dose: 12.5 micrograms/kg/injection, schedule: Q## X009 (ip), vehicle: saline + alcohol) is 110 % of control; the T/C (dose: 25.0 micrograms/kg/injection, schedule: Q## X009 (ip), vehicle: saline + alcohol) is 118 % of control; the T/C (dose: 50.0 micrograms/kg/injection, schedule: Q## X009 (ip), vehicle: saline + alcohol) was 109 % of control; the T/C (dose: 100.0 micrograms/kg/injection, schedule: Q## X009 (ip), vehicle: saline + alcohol) was 159 % of control; the T/C (dose: 200.0 micrograms/kg/injection, schedule: Q## X009 (ip), vehicle: saline + alcohol) is 173 % of control.

For the molecule `CC(Br)C1(c2cccc([N+](=O)[O-])c2)OCCO1` (stereo unspecified), the T/C runs as follows: (dose: 25.0 mg/kg/injection, schedule: Q01DX001 (ip), vehicle: Klucel (hydroxypropylcellulose) (HPC)) 100 % of control; (dose: 50.0 mg/kg/injection, schedule: Q01DX001 (ip), vehicle: Klucel (hydroxypropylcellulose) (HPC)) 104 % of control; under setting [12], 90 % of control and 100 % of control.

As to `O=C(O)CSc1ccc(NC(=O)Nc2ccccc2F)cc1`, the T/C under setting [3] was 105 % of control, the T/C under setting [5] is 105 % of control and the T/C under setting [6] was 105 % of control.

In the case of `CCC1C/C(=C\NC(N)=O)C(=O)O1` (stereo unspecified), the T/C (dose: 6.25 mg/kg/injection, schedule: Q04DX003 (ip), vehicle: saline with Tween-80) is 96 % of control; the T/C (dose: 12.5 mg/kg/injection, schedule: Q04DX003 (ip), vehicle: saline with Tween-80) was 111 % of control; the T/C under setting [10] was 104 % of control; the T/C under setting [11] is 104 % of control; the T/C (dose: 400.0 mg/kg/injection, schedule: Q04DX003 (ip), vehicle: saline with Tween-80) is 86 % of control.

As to `CCOC1=NCCCCCCC1`, the T/C by setting is: (dose: 50.0 mg/kg/injection, schedule: Q01DX009 (ip), vehicle: saline with Tween-80) 98 % of control; under setting [15], 97 % of control; under setting [16], 99 % of control.

Turning to `NC(=O)n1cccn1`, the T/C (dose: 30.0 mg/kg/injection, schedule: Q01DX010 (ip), vehicle: saline) was 100 % of control; the T/C (dose: 50.0 mg/kg/injection, schedule: Q01DX010 (ip), vehicle: other) was 104 % of control; the T/C (dose: 60.0 mg/kg/injection, schedule: Q01DX010 (ip), vehicle: saline) is 100 % of control; the T/C (dose: 100.0 mg/kg/injection, schedule: Q01DX010 (ip), vehicle: other) is 100 % of control; the T/C (dose: 120.0 mg/kg/injection, schedule: Q01DX010 (ip), vehicle: saline) was 109 % of control; the T/C (dose: 240.0 mg/kg/injection, schedule: Q01DX010 (ip), vehicle: saline) was 122 % of control.

Take `NC(=O)N(CCO)CCO`: the T/C was 100 % of control under setting [1]; 100 % of control under setting [8]; 90 % of control under setting [13]; 100 % of control under setting [9]; 100 % of control (dose: 400.0 mg/kg/injection, schedule: Q01DX009 (ip), vehicle: saline); 100 % of control under setting [14].

As for `C1CC[N-]CC1.C1CC[N-]CC1.[Cl][Pt+2]([Cl])([Cl])[Cl]`, the T/C by setting is: under setting [15], 95 % of control; under setting [16], 90 % of control.

Turning to `CC1(C)OCC(/C=C/C=N/Nc2ccc([N+](=O)[O-])cc2)O1` (stereo unspecified), the T/C (dose: 100.0 mg/kg/injection, schedule: Q01DX001 (ip), vehicle: saline with Tween-80) is 105 % of control and the T/C (dose: 200.0 mg/kg/injection, schedule: Q01DX001 (ip), vehicle: saline with Tween-80) is 110 % of control.

For `CC/C(=C\c1ccccc1)[N+](=O)[O-]`, the T/C is 96 % of control (dose: 12.5 mg/kg/injection, schedule: Q01DX009 (ip), vehicle: saline); 114 % of control and 124 % of control (dose: 25.0 mg/kg/injection, schedule: Q01DX009 (ip), vehicle: saline); 123 % of control (dose: 50.0 mg/kg/injection, schedule: Q01DX009 (ip), vehicle: saline); 109 % of control under setting [7]; 100 % of control under setting [8].

For `Cc1ccc(S(=O)(=O)Oc2cc(C)ccc2C)cc1`, the T/C is 105 % of control (dose: 25.0 mg/kg/injection, schedule: Q04DX003 (ip), vehicle: Klucel (hydroxypropylcellulose) (HPC)); 95 % of control under setting [2]; 114 % of control under setting [15]; 105 % of control under setting [4]; 109 % of control under setting [16]; 114 % of control (dose: 400.0 mg/kg/injection, schedule: Q01DX009 (ip), vehicle: saline with Tween-80).
